Test results from PubChem BioAssay AID248 (DTP/NCI, 2004).
Toxic doses and inconclusive results are not listed. Cut-off read from the data, not from the text of the source: active = T/C of 150% or more; inactive = T/C below 125%.

Tested on: L1210 leukemia ip in BDF1 mice, survival T/C
Test: NCI In Vivo Anticancer Drug Screen. Data for tumor model L1210 Leukemia (intraperitoneal) in B6D2F1 (BDF1) mice
Settings: endpoint: mean survival time, higher = longer survival
Method in brief: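 Tumor was transplanted into mice, which were then dosed with test compound or vehicle alone. Survival was recorded for each group, and the treated figure was expressed relative to the control figure.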

[1] = dose: 100.0 mg/kg/injection, schedule: Q04DX002 (ip), vehicle: Klucel (hydroxypropylcellulose) (HPC)
[2] = dose: 200.0 mg/kg/injection, schedule: Q04DX002 (ip), vehicle: Klucel (hydroxypropylcellulose) (HPC)
[3] = dose: 400.0 mg/kg/injection, schedule: Q04DX002 (ip), vehicle: Klucel (hydroxypropylcellulose) (HPC)
[4] = dose: 100.0 mg/kg/injection, schedule: Q04DX003 (ip), vehicle: saline with Tween-80
[5] = dose: 200.0 mg/kg/injection, schedule: Q04DX003 (ip), vehicle: saline with Tween-80
[6] = dose: 400.0 mg/kg/injection, schedule: Q04DX003 (ip), vehicle: saline with Tween-80
[7] = dose: 100.0 mg/kg/injection, schedule: Q01DX001 (ip), vehicle: saline
[8] = dose: 200.0 mg/kg/injection, schedule: Q01DX001 (ip), vehicle: saline
[9] = dose: 400.0 mg/kg/injection, schedule: Q01DX001 (ip), vehicle: saline
[10] = dose: 100.0 mg/kg/injection, schedule: Q04DX003 (ip), vehicle: Klucel (hydroxypropylcellulose) (HPC)
[11] = dose: 100.0 mg/kg/injection, schedule: Q01DX009 (ip), vehicle: saline with Tween-80
[12] = dose: 200.0 mg/kg/injection, schedule: Q01DX009 (ip), vehicle: saline with Tween-80
[13] = dose: 400.0 mg/kg/injection, schedule: Q01DX009 (ip), vehicle: saline with Tween-80
[14] = dose: 200.0 mg/kg/injection, schedule: Q04DX003 (ip), vehicle: Klucel (hydroxypropylcellulose) (HPC)
[15] = dose: 400.0 mg/kg/injection, schedule: Q04DX003 (ip), vehicle: Klucel (hydroxypropylcellulose) (HPC)

Measured: T/C

CC(=O)OCC1OC(OCC2OC(Sc3ccccc3)C(OC(C)=O)C(OC(C)=O)C2OC(C)=O)C(OC(C)=O)C(OC(C)=O)C1OC(C)=O (configuration not stated)
inactive: [1] 89 % of control | [2] 86 % of control | [3] 86 % of control

C[CH2][Sn]([CH2]C)([CH2]C)[O]c1ccccc1
inactive: dose: 1.56 mg/kg/injection, schedule: Q01DX009 (ip), vehicle: saline with Tween-80 97 % of control | dose: 3.12 mg/kg/injection, schedule: Q01DX009 (ip), vehicle: saline with Tween-80 108 % of control

O=C(O)c1ccc(NO)cc1
inactive: dose: 24.0 mg/kg/injection, schedule: Q01DX Z (ip), vehicle: methylcellulose (MC) 103 % of control | dose: 36.0 mg/kg/injection, schedule: Q01DX Z (ip), vehicle: methylcellulose (MC) 100 % of control | dose: 55.0 mg/kg/injection, schedule: Q01DX Z (ip), vehicle: methylcellulose (MC) 102 % of control | dose: 83.0 mg/kg/injection, schedule: Q01DX Z (ip), vehicle: methylcellulose (MC) 93 % of control

c1ccc(-c2nc3nncn3nc2-c2ccccc2)cc1
inactive: [7] 94 % of control | [8] 99 % of control | [9] 98 % of control

O=S1(=O)Cc2ccccc2-c2ccccc2C1
inactive: dose: 100.0 mg/kg/injection, schedule: Q04DX002 (ip), vehicle: gum acacia 103 % of control | dose: 200.0 mg/kg/injection, schedule: Q04DX002 (ip), vehicle: gum acacia 103 % of control | dose: 400.0 mg/kg/injection, schedule: Q04DX002 (ip), vehicle: gum acacia 106 % of control

CC(C(=O)O)C1(O)CCCCC1 (configuration not stated)
inactive: dose: 5.0 mg/kg/injection, schedule: Q04DX003 (ip), vehicle: saline with Tween-80 96 % of control | dose: 10.0 mg/kg/injection, schedule: Q04DX003 (ip), vehicle: saline with Tween-80 89 % of control | dose: 20.0 mg/kg/injection, schedule: Q04DX003 (ip), vehicle: saline with Tween-80 87 % of control

CNC1CC(N)C(O)C(OC2OC(CO)C(O)C3OC4(OC(C(N)CO)C(O)C(O)C4O)OC23)C1O (configuration not stated)
inactive: dose: 2.2 mg/kg/injection, schedule: Q01DX Z (ip), vehicle: saline 97 % of control | dose: 3.3 mg/kg/injection, schedule: Q01DX Z (ip), vehicle: saline 94 % of control | dose: 5.0 mg/kg/injection, schedule: Q01DX Z (ip), vehicle: saline 89 % of control | dose: 7.6 mg/kg/injection, schedule: Q01DX Z (ip), vehicle: saline 94 % of control

COc1ccc(/C=N/N=C(N)N)cc1
inactive: dose: 15.0 mg/kg/injection, schedule: Q01DX Z (ip), vehicle: saline 103 % of control | dose: 30.0 mg/kg/injection, schedule: Q01DX Z (ip), vehicle: saline 100 % of control | dose: 30.0 mg/kg/injection, schedule: Q01DX Z (oral), vehicle: other 93 % of control | dose: 60.0 mg/kg/injection, schedule: Q01DX Z (ip), vehicle: saline 95 % of control | dose: 60.0 mg/kg/injection, schedule: Q01DX Z (oral), vehicle: other 100 % of control | dose: 120.0 mg/kg/injection, schedule: Q01DX Z (oral), vehicle: other 98 % of control

c1ccc(Sc2ncnc3nc[nH]c23)nc1
inactive: dose: 267.0 mg/kg/injection, schedule: Q01DX001 (ip), vehicle: saline with Tween-80 110 % of control

CN(C)c1nc2ccccc2n1C1OC(CO)C(O)C1O (configuration not stated)
inactive: dose: 100.0 mg/kg/injection, schedule: Q01DX001 (ip), vehicle: acetone 106 % of control | dose: 200.0 mg/kg/injection, schedule: Q01DX001 (ip), vehicle: acetone 103 % of control | dose: 400.0 mg/kg/injection, schedule: Q01DX001 (ip), vehicle: acetone 97 % of control

C[N+](C)(C)C1=CC=CC=C1.Br[Br-]Br
inactive: dose: 12.5 mg/kg/injection, schedule: Q01DX009 (ip), vehicle: other 98 % of control | dose: 12.5 mg/kg/injection, schedule: Q04DX003 (ip), vehicle: Klucel (hydroxypropylcellulose) (HPC) 102 % of control | dose: 25.0 mg/kg/injection, schedule: Q01DX009 (ip), vehicle: other 98 % of control | dose: 25.0 mg/kg/injection, schedule: Q01DX009 (ip), vehicle: saline 104 % of control | dose: 25.0 mg/kg/injection, schedule: Q04DX003 (ip), vehicle: Klucel (hydroxypropylcellulose) (HPC) 102 % of control | dose: 50.0 mg/kg/injection, schedule: Q01DX009 (ip), vehicle: other 95 % of control | dose: 50.0 mg/kg/injection, schedule: Q01DX009 (ip), vehicle: saline 105 % of control | dose: 50.0 mg/kg/injection, schedule: Q04DX003 (ip), vehicle: Klucel (hydroxypropylcellulose) (HPC) 101 % of control | dose: 100.0 mg/kg/injection, schedule: Q01DX001 (ip), vehicle: Klucel (hydroxypropylcellulose) (HPC) 101 % of control | [10] 104 % of control

CCOC(=O)C(=Cc1ccccc1)C(=O)OCC
inactive: [7] 96 % of control | [1] 98 % of control | [8] 100 % of control | [2] 95 % of control | [9] 100 % of control | [3] 102 % of control

COc1cc(CC(=O)O)ccc1OCc1ccccc1
inactive: [11] 101 % of control | [12] 101 % of control | [13] 116 % of control

CN(C)c1ccc(/C=C2\CCC/C(=C\c3ccc(N(C)C)cc3)C2=O)cc1
inactive: [10] 96 % of control | [14] 96 % of control | [15] 92 % of control

Cc1c(O)c([N+](=O)[O-])cc2c1OCOC2
inactive: [10] 96 % of control | [14] 102 % of control | [15] 93 % of control

CC(C)/C(=N\Nc1ccc([N+](=O)[O-])cc1[N+](=O)[O-])c1ccccc1
inactive: [4] 96 % of control | [5] 106 % of control | [6] 100 % of control

C[N+](C)(CC(=O)Nc1ccc(Oc2ccc(Cl)cc2)cc1)Cc1ccccc1
inactive: dose: 12.5 mg/kg/injection, schedule: Q01DX001 (ip), vehicle: Klucel (hydroxypropylcellulose) (HPC) 104 % of control | dose: 12.5 mg/kg/injection, schedule: Q01DX009 (ip), vehicle: Klucel (hydroxypropylcellulose) (HPC) 91 % of control | dose: 25.0 mg/kg/injection, schedule: Q01DX001 (ip), vehicle: Klucel (hydroxypropylcellulose) (HPC) 101 % of control | dose: 25.0 mg/kg/injection, schedule: Q01DX009 (ip), vehicle: Klucel (hydroxypropylcellulose) (HPC) 88 % of control | dose: 50.0 mg/kg/injection, schedule: Q01DX001 (ip), vehicle: Klucel (hydroxypropylcellulose) (HPC) 93 % of control

CCOC(=O)C12CC=CC(CCC1)C2=O (configuration not stated) (tested in a mixture with another compound)
inactive: [11] 112 % of control | [4] 103 % of control | [12] 101 % of control | [5] 102 % of control | [13] 101 % of control | [6] 105 % of control

O=C(OCCc1ccccc1)Oc1ccccc1
inactive: dose: 100.0 mg/kg/injection, schedule: Q01DX009 (ip), vehicle: saline 115 % of control | dose: 200.0 mg/kg/injection, schedule: Q01DX009 (ip), vehicle: saline 110 % of control | dose: 400.0 mg/kg/injection, schedule: Q01DX009 (ip), vehicle: saline 103 % of control
